How the values were obtained:
[1] = biological target: human farnesyltransferase (FTase) (Homo sapiens, UniProt P49354+P49356); assay: FTase inhibitory assay (fluorescence, Dansyl-GCVLS); format: biochemical; details: inhibition of human FTase at 100 μM of tested compound; mean of two experiments
Experimental: With 40 new products in hand, the determination of their inhibitory activity on human farnesyl-transferase (FTase) in vitro was first undertaken. Dimethyl sulfoxide (DMSO) was used as the negative control, and Chaetomellic acid A was the positive reference in all assays. At the outset, and in order to select only significant results, products with an inhibitory power greater than 60% at an initial screening concentration of 100 µM were retained for the determination of their IC50 and, therefore, for further discussion. Moreover, given the number of products tested, they are grouped into three subfamilies on the basis of the degree of the sulphur atom oxidation (series of sulfides, series of sulfoxides, and series of sulfones), and the results obtained are grouped in Table 1, Table 2 and Table 3.
3.3. FTase Inhibitory Assay
Assays were realized in 96-well plates, prepared with a Biomek NKMC and a Biomek 3000 from Beckman Coulter, and read on a Wallac Victor fluorimeter from PerkinElmer. Per well, 20 µL of farnesyl pyrophosphate (10 μM) was added to 180 µL of a solution containing 2 µL of varied concentrations of potential inhibitors (dissolved in DMSO) and 178 μL of a solution composed of 10 μL of partially purified recombinant human FTase (15 µg mL^−1) and 1.0 µL of Dansyl-GCVLS peptide (in the following buffer: 5.6 mM DTT, 5.6 mM MgCl2, 12 μM ZnCl2 and 0.2% (w/v) octyl-β-D-glucopyranoside, 52 mM Tris/HCl, pH 7.5). Fluorescence was recorded for 15 min (0.7 s per well, 20 repeats) at 30 °C with an excitation filter at 340 nm and an emission filter of 486 nm. Each measurement was reproduced twice, in duplicate. The kinetic experiments were realized under the same conditions, either with FPP as varied substrate with a constant concentration of Dns-GCVLS of 2.5 μM or with Dns-GCVLS as varied substrate with a constant concentration of FPP of 10 μM. Non-linear regressions were performed using the Excel software.

[2] = test system: panel of 60 human cancer cell lines; assay: NCI 60 cell panel one dose screen (whole panel); format: cell-based; parameters: Delta (One Dose Mean Graph): unit not given here; details: 1.00E-5 Molar one dose; for Range (One Dose Mean Graph): in % (unit assumed); for Mean Growth Percent: mean over tested cell lines
Experimental: (§1) 3.4. Cell Proliferation Assay
Selected compounds were tested on a panel of 60 human cancer cell lines at the National Cancer Institute (NCI), Germantown, MD, USA. The cytotoxicity studies were conducted using a 48 h exposure protocol using the sulfo-rhodamine B assay. […]
X. NCI One Dose Mean Graph of sulfides 4a(A -J) and 4b(A-J)
The entire series of sulfides regrouping twenty synthesized FTI-candidates (4aA-J, 4bA-J) were selected by the National Cancer Institute (NCI) for evaluation of their antiproliferative activity against 60 cancer cell lines (see the followings twenty pages for full evaluation reports). […]
inhibiting 36% of the NCI-H522 cells. Such difference between IC50 on human FTase in the nanomolar range and IC50 on cancer cell growth in the micromolar range is characteristic to potent FTIs and was reported previously on different series of compounds (see for example ref erence in the references part […]
Of interest, none of the tested compounds at a high single dose (10 µM) in the full NCI 60 cell panel has shown a cytotoxic profile. […]
inhibitory potential on FTase raise good hope for further investigation of these series as agents fighting

MOLT-4 (Leukemia) = assay: NCI one dose, MOLT-4; format: cell-based, human; details: MOLT-4, 1.00E-5 Molar one dose
Experimental: as §1
(§2) Selected compounds were tested on a panel of 60 human cancer cell lines at the National Cancer Institute (NCI), Germantown, MD, USA. The cytotoxicity studies were conducted using a 48 h exposure protocol using the sulfo-rhodamine B assay.

[3] = test system: HOP-62 (Non-Small Cell Lung Cancer); assay: NCI one dose, HOP-62; format: cell-based, human; details: HOP-62, 1.00E-5 Molar one dose
Experimental: as §1, §2

[4] = test system: NCI-H460 (Non-Small Cell Lung Cancer); assay: NCI one dose, NCI-H460; format: cell-based, human; details: NCI-H460, 1.00E-5 Molar one dose
Experimental: as §1, §2

[5] = test system: NCI-H522 non-small cell lung cancer cells; assay: NCI cell proliferation, NCI-H522; format: cell-based, human; details: for inhibition at 10 µM: read-out: % Cancer cell growth Inhibition (NCI-H522); for Growth Percent: NCI-H522, 1.00E-5 Molar one dose
Experimental: as §1, §2

HCT-15 (Colon Cancer) = assay: NCI one dose, HCT-15; format: cell-based, human; details: HCT-15, 1.00E-5 Molar one dose
Experimental: as §1, §2

HT29 (Colon Cancer) = assay: NCI one dose, HT29; format: cell-based, human; details: HT29, 1.00E-5 Molar one dose
Experimental: as §1, §2

SF-539 (CNS Cancer) = assay: NCI one dose, SF-539; format: cell-based, human; details: SF-539, 1.00E-5 Molar one dose
Experimental: as §1, §2

SNB-19 (CNS Cancer) = assay: NCI one dose, SNB-19; format: cell-based, human; details: SNB-19, 1.00E-5 Molar one dose
Experimental: as §1, §2

SK-MEL-5 (Melanoma) = assay: NCI one dose, SK-MEL-5; format: cell-based, human; details: SK-MEL-5, 1.00E-5 Molar one dose
Experimental: as §1, §2

UACC-257 melanoma cells = assay: NCI one dose, UACC-257; format: cell-based, human; details: UACC-257, 1.00E-5 Molar one dose
Experimental: as §1, §2

UACC-62 (Melanoma) = assay: NCI one dose, UACC-62; format: cell-based, human; details: UACC-62, 1.00E-5 Molar one dose
Experimental: as §1, §2

OVCAR-3 (Ovarian Cancer) = assay: NCI one dose, OVCAR-3; format: cell-based, human; details: OVCAR-3, 1.00E-5 Molar one dose
Experimental: as §1, §2

OVCAR-5 (Ovarian Cancer) = assay: NCI one dose, OVCAR-5; format: cell-based, human; details: OVCAR-5, 1.00E-5 Molar one dose
Experimental: as §1, §2

SK-OV-3 (Ovarian Cancer) = assay: NCI one dose, SK-OV-3; format: cell-based, human; details: SK-OV-3, 1.00E-5 Molar one dose
Experimental: as §1, §2

ACHN (Renal Cancer) = assay: NCI one dose, ACHN; format: cell-based, human; details: 1.00E-5 Molar one dose
Experimental: as §1, §2

SN12C (Renal Cancer) = assay: NCI one dose, SN12C; format: cell-based, human; details: 1.00E-5 Molar one dose
Experimental: as §1, §2

TK-10 (Renal Cancer) = assay: NCI one dose, TK-10; format: cell-based, human; details: TK-10, 1.00E-5 Molar one dose
Experimental: as §1, §2

BT-549 (Breast Cancer) = assay: NCI one dose, BT-549; format: cell-based, human; details: BT-549, 1.00E-5 Molar one dose
Experimental: as §1, §2

[6] = test system: MDA-MB-468 breast cancer cells; assay: NCI one dose, MDA-MB-468; format: cell-based, human; details: MDA-MB-468, 1.00E-5 Molar one dose
Experimental: as §1, §2

% FTI [1] [%]	SMILES	Delta (One Dose Mean Graph) [2]	Range (One Dose Mean Graph) [2]	Mean Growth Percent [2] [%]	Growth Percent (MOLT-4 (Leukemia)) [%]	Growth Percent [3] [%]	Growth Percent [4] [%]	inhibition at 10 µM ([5]; Homo sapiens, NCI-H522) [%]	Growth Percent [5] [%]	Growth Percent (HCT-15 (Colon Cancer)) [%]	Growth Percent (HT29 (Colon Cancer)) [%]	Growth Percent (SF-539 (CNS Cancer)) [%]	Growth Percent (SNB-19 (CNS Cancer)) [%]	Growth Percent (SK-MEL-5 (Melanoma)) [%]	Growth Percent (UACC-257 melanoma cells) [%]	Growth Percent (UACC-62 (Melanoma)) [%]	Growth Percent (OVCAR-3 (Ovarian Cancer)) [%]	Growth Percent (OVCAR-5 (Ovarian Cancer)) [%]	Growth Percent (SK-OV-3 (Ovarian Cancer)) [%]	Growth Percent (ACHN (Renal Cancer)) [%]	also measured
21	COc1ccccc1CNC(=O)[C@@H]1CS[C@H]2c3ccccc3C(=O)N12 [4aG]	31.67	50.93	101.60	97.42	104.24	110.17	30	69.93	107.09	77.01	103.40	107.13	103.84	74.73	103.22	109.74	112.94	107.78	109.98	Growth Percent (SN12C (Renal Cancer)): 110.50%; Growth Percent (TK-10 (Renal Cancer)): 90.98%; Growth Percent (BT-549 (Breast Cancer)): 110.45%; Growth Percent [6]: 101.62%
49	C[C@@]12SC[C@@H](C(=O)NCc3ccccc3)N1C(=O)c1ccccc12 [4bA]	22.99	45.00	97.89	93.49	100.09	111.12	25	74.90	98.84	80.95	95.44	100.20	102.19	79.51	97.03	119.90	97.87	102.08	102.90	Growth Percent (SN12C (Renal Cancer)): 95.20%; Growth Percent (TK-10 (Renal Cancer)): 85.29%; Growth Percent (BT-549 (Breast Cancer)): 106.90%; Growth Percent [6]: 99.04%
62	COc1ccc(CNC(=O)[C@@H]2CS[C@H]3c4ccccc4C(=O)N23)cc1OC [4aI]	34.91	52.35	98.56	99.18	98.51	111.19	36	63.65	109.55	80.71	102.96	104.62	102.31	75.20	98.01	116.00	102.57	104.05	105.56	GI50 ([5]; Homo sapiens, NCI-H522): 20.8 µM; Growth Percent (SN12C (Renal Cancer)): 100.89%; Growth Percent (TK-10 (Renal Cancer)): 87.34%; Growth Percent (BT-549 (Breast Cancer)): 108.27%; Growth Percent [6]: 102.27%
35	COc1cccc(CNC(=O)[C@@H]2CS[C@H]3c4ccccc4C(=O)N23)c1 [4aE]	27.47	39.82	101.56	80.83	96.82	113.41	26	74.09	105.05	89.79	110.14	104.75	106.50	93.82	102.11	104.00	113.91	110.57	110.85	Growth Percent (SN12C (Renal Cancer)): 105.19%; Growth Percent (TK-10 (Renal Cancer)): 89.04%; Growth Percent (BT-549 (Breast Cancer)): 110.89%; Growth Percent [6]: 106.71%
22	C[C@@]12SC[C@@H](C(=O)NCc3ccc(Cl)cc3Cl)N1C(=O)c1ccccc12 [4bH]	23.83	40.77	95.56	83.18	103.25	104.39	28	71.73	105.31	83.74	100.42	100.91	92.84	79.49	81.85	101.07	99.53	99.25	106.47	Growth Percent (SN12C (Renal Cancer)): 97.63%; Growth Percent (TK-10 (Renal Cancer)): 105.53%; Growth Percent (BT-549 (Breast Cancer)): 107.71%; Growth Percent [6]: 88.80%
30	COc1ccccc1CNC(=O)[C@@H]1CS[C@@]2(C)c3ccccc3C(=O)N12 [4bG]	28.52	40.41	98.55	96.78	98.30	107.31	30	70.03	98.16	79.32	109.96	102.87	98.16	74.15	95.39	110.44	107.74	99.44	109.61	Growth Percent (SN12C (Renal Cancer)): 107.44%; Growth Percent (TK-10 (Renal Cancer)): 91.89%; Growth Percent (BT-549 (Breast Cancer)): 109.63%; Growth Percent [6]: 93.22%

From paper PMC11855478, “Bicyclic N,S-Acetals Containing Fused Cysteine-Amide System as New Heterocyclic Class Targeting Human Farnesyltransferase (FTase-h)” (International Journal of Molecular Sciences, 2025)
